Results taken from publication PMC8262356, “SLC26A6-selective inhibitor identified in a small-molecule screen blocks fluid absorption in small intestine” (JCI Insight, 2021).

Tests used:
PAT1 (murine slc26a6) = biological target: T1, PAT1 (murine slc26a6) (Mus musculus, UniProt Q8CIW6); assay: PAT1-mediated Cl-/I- exchange, YFP fluorescence quenching in FRT cells; type: cell-based; conditions: for effect on PAT1-mediated Cl-/I- exchange: 100 μM agonist
T1 construct: host or cells: Fischer rat thyroid (FRT) cells, lentiviral transduction (pLVX-IRES-mCherry-slc26a6), clonal line FRT-YFP-slc26a6
T1 sequence (Q8CIW6 24-758 limits assumed): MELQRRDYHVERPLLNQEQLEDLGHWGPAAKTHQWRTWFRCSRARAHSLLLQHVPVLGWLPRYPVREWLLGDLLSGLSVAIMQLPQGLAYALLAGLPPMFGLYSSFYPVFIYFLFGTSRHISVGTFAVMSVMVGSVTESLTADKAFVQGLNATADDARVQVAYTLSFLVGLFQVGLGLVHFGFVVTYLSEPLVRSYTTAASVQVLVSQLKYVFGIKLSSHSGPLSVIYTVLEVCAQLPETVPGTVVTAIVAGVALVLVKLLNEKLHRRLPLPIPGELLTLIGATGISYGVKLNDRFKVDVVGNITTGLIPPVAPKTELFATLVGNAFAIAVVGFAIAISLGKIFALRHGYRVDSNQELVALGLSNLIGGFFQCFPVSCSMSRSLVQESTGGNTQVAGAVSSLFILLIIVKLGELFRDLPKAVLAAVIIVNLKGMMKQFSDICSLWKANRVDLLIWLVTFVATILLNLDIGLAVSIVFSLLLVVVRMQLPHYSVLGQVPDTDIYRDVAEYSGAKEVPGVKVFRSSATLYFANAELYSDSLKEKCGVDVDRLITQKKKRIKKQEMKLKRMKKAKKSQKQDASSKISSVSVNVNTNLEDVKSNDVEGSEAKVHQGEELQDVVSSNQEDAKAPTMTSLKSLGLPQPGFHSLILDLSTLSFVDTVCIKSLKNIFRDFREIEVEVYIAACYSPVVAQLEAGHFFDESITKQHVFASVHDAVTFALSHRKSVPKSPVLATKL
Protocol: A small-molecule screen was developed to identify PAT1 inhibitors utilizing transfected FRT cells expressing PAT1 (murine slc26a6) together with a halide-sensing cytoplasmic YFP (Figure 1A). Adherent cells in a 96-well format were subjected to an inward gradient of I^– to drive exchange of I^– for Cl^– and consequent quenching of the YFP fluorescence signal.
A collection of approximately 50,000 diverse, drug-like synthetic small molecules (ChemDiv) was screened at a concentration of 25 μM using a Beckman Coulter BioMek FX liquid handling platform with FLUOstar OMEGA plate readers (BMG Labtech). FRT-YFP-slc26a6 cells were plated in 96-well black-walled, clear-bottom plates (Corning Life Sciences) at a density of 20,000 cells/well and cultured for 48 hours until confluent. Cells were washed twice in PBS and incubated for 10 minutes prior to assay in 100 μl PBS containing test compounds. For assay of slc26a6 function, baseline cellular fluorescence was measured for 2 seconds, after which 100 μl NaI-substituted PBS (140 mM NaCl replaced by 140 mM NaI) was added by syringe pump to drive Cl^–/I^– exchange. The initial rate of Cl^–/I^– exchange was determined by single exponential regression of the fluorescence time course. All assay plates contained wells with negative (1% DMSO) and positive (500 μM niflumic acid) controls. For structure-activity relationship studies, analogs of active compounds were purchased from ChemDiv.

[1] = system: mouse midjejunal closed loops; design: method as in PMID 30046015; conditions: 10 μM; cited from earlier work
mouse ileal closed loops = assay: Closed ileal loop fluid absorption; type: in vivo; conditions: 10 μM luminal, 30 minutes, PBS
Protocol: (§1) For fluid absorption studies in small intestine, mice were given free access to 5% dextrose in water but not solid food for 24 hours before experiments. Closed midjejunal and ileal loops were prepared and isolated as described previously ([29]). Mice were anesthetized with isoflurane, and body temperature was maintained during surgery at 36°C–38°C using a heating pad. A small abdominal incision was made to expose small intestine for isolation of 3–4 closed small intestinal loops (jejunum or ileum, length 2–3 cm) with sutures. Loops were injected with 100 μL PBS (pH 7.4, 137 mM NaCl, 2.7 mM KCl, 8 mM Na2HPO4, 1.8 mM KH2PO4, 1 mM CaCl2, 0.5 mM MgCl2) containing 30 μM PAT1inh-B01, 10 μM DRAinh-A270, or 10 μM tenapanor (MedChemExpress) (or vehicle, 0.1% DMSO in PBS). In some experiments, 30 μM PAT1inh-B01 and 10 μM DRAinh-A270 were used together. In some experiments to rule out effects of sodium-dependent phosphate transport, the loop lumen contained HEPES-buffered saline (pH 7.4, 137 mM NaCl, 4.5 mM KCl, 10 mM HEPES, 1 mM CaCl2, 0.5 mM MgCl2). The abdominal incision was closed with sutures, and mice were allowed to recover from anesthesia. Intestinal loops were removed at 0 and 30 minutes (in separate mice), and loop length and weight were measured to quantify fluid absorption. In parallel experiments, CF mice were used and loop studies were done as described above. In some experiments, loop fluid was emptied with a syringe, and pH was measured immediately using AB15 pH meter after brief centrifugation at 2000 g for 5 minutes at 4°C.

[2] = system: mouse midjejunal closed loops; assay: Closed midjejunal loop fluid absorption; type: in vivo; conditions: 10 μM luminal, 30 minutes
Protocol: as §1, with “The abdominal incision was closed with sutures, and mice were allowed to recover from anesthesia.” left out, “In parallel experiments, CF mice were used and loop studies were done as described above.” left out

[3] = system: ileal closed loops in cystic fibrosis (CF) mice (homozygous F508del); assay: Closed ileal loop fluid absorption in CF mice; type: in vivo, mouse; conditions: 10 μM luminal
Protocol: as §1

[4] = system: loperamide-induced constipation in mice; assay: Loperamide model of constipation; type: in vivo, mouse; conditions: 10 mg/kg, oral, stool collected over 3 hours
Protocol: Wild-type CD1 mice were administered loperamide (0.3 mg/kg, intraperitoneally) in PBS containing 5% ethanol (0.1 mg/mL final concentration) to induce constipation ([9], [30]). PAT1inh-B01 and DRAinh-A270, individually or together (10 mg/kg each, in saline containing 5% DMSO and 10% Kolliphor HS 15), or vehicle control were administered by oral gavage 1 hour before loperamide. After loperamide injection mice were placed individually in metabolic cages with free access to food and water. Stool samples were collected for 3 hours, and total stool weight and number of fecal pellets were quantified. To measure stool water content, stool samples were dried at 80°C for 24 hours and water content was calculated as follows: (wet weight – dry weight)/wet weight ([9], [30]).

DRA = DRA inhibition potency comparison; conditions: vs DRAinh-A250
[5] = system: mouse distal colonic closed loops; assay: Closed distal colonic loop fluid absorption; type: in vivo; conditions: 10 μM luminal
Protocol: For fluid absorption studies in colon, mice were given free access to 5% dextrose in water but not solid food for 48 hours. Mice were treated with 500 μL mineral oil twice a day rectally (final dose 16 h before surgery) during this period to evacuate the colon. Closed distal colonic loops (length 1.5–2 cm, 1 loop per mouse) were isolated as described previously ([7]). Loops were injected with 100 μL PBS with 30 μM PAT1inh-B01, 10 μM DRAinh-A270, or 10 μM tenapanor (or vehicle). In some experiments, 30 μM PAT1inh-B01 and 10 μM DRAinh-A270 were used together. Colonic loops were removed at 0 and 60 minutes (in separate mice), and loop length and weight were measured to quantify fluid absorption.

In the case of `Nc1nc2c(nc(Br)n2[C@@H]2O[C@@H]3COP(=O)(O)O[C@H]3[C@H]2O)c(=O)[nH]1` [8-Br-cGMP, reference compound], the “effect on PAT1-mediated Cl-/I- exchange” value (PAT1 (murine slc26a6)) is reported as “did not significantly affect”.

For `Nc1ncnc2c1ncn2[C@@H]1O[C@H](COP(=O)(O)OP(=O)(O)OP(=O)(O)O)[C@@H](O)[C@H]1O` [ATP, reference compound], the “effect on PAT1-mediated Cl-/I- exchange” value (PAT1 (murine slc26a6)) was “did not significantly affect”.

In the case of `Cc1c(CC(=O)O)c(=O)oc2c(C)c(OCc3cccc(Br)c3)ccc12` [DRAinh-A250], the “effect on fluid absorption in closed midjejunal loops” value [1] is listed as “did not significantly affect”.

For `Cc1c(CC(=O)O)c(=O)oc2c(C)c(OCc3cccc(I)c3)ccc12` [DRAinh-A270], the “effect on ileal fluid absorption (loop weight-to-length ratio)” value (mouse ileal closed loops) was “did not inhibit”, the “inhibition of fluid absorption (decrease in loop weight-to-length ratio)” value [2] was “approximately 50%” and the “effect on fluid absorption from ilea of CF mice” value [3] was “no effect”. For the same compound, the “effect on number of pellets” value [4] was “increased”, the “effect on stool water content” value [4] was “normalized” and the “effect on stool weight” value [4] was “increased”. The “potency as DRA inhibitor relative to DRAinh-A250” value (DRA) was 5 fold and the “effect on colonic fluid absorption (loop weight-to-length ratio)” value [5] was “completely prevented”.

In the case of `O=C(O)c1cccnc1Nc1cccc(C(F)(F)F)c1` [niflumic acid, reference compound], the IC50 (PAT1 (murine slc26a6); FRT cells expressing PAT1 and YFP, read-out: IC50, inhibition of PAT1-mediated Cl-/I- exchange) is reported as 200 µM.

In the case of `CN1Cc2c(Cl)cc(Cl)cc2[C@H](c2cccc(S(=O)(=O)NCCOCCOCCNC(=O)NCCCCNC(=O)NCCOCCOCCNS(=O)(=O)c3cccc([C@@H]4CN(C)Cc5c(Cl)cc(Cl)cc54)c3)c2)C1` [tenapanor], the “effect on ileal fluid absorption (loop weight-to-length ratio)” value (mouse ileal closed loops) is reported as “comparable”, the “inhibition of fluid absorption (decrease in loop weight-to-length ratio)” value [2] is reported as “comparable” and the “effect on fluid absorption from ilea of CF mice” value [3] is reported as “completely blocked”. The “effect on colonic fluid absorption (loop weight-to-length ratio)” value [5] was “did not inhibit”.
